Assay results published in patent US20230085307A1, “PYRIDAZINONE COMPOUND AND HERBICIDE” (NISSAN CHEMICAL CORPORATION, priority 2019, published 2023).

Key:
[1] = tested on: oval-leafed pondweed; assay: Test Example 1: herbicidal activity, application before weed generation under submerged conditions (Table 16, symbol C); format: in vivo, oval-leafed pondweed (Monochoria vaginalis); details: amount of applied herbicide 320 g/ha
Summary of the method: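 Submerged Wagner pots (alluvial soil, 4 cm water) sown with weed seeds and planted with 2.5-leaf rice seedlings; emulsifiable concentrate diluted in water applied to water surface on sowing day. Held in greenhouse at 25-30 °C; injury scored 0-5 by herbicidal rate after three weeks.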

[2] = tested on: Japanese bulrush; assay: Test Example 2: herbicidal activity, application during weed generation under submerged conditions (Table 17, symbol B); format: in vivo, Japanese bulrush (Schoenoplectus juncoides); details: AAH 320 g/ha; application during weed generation, submerged conditions
Summary of the method: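 In this pot test, flooded alluvial soil (water depth 4 cm) holds all three species sown as a mixture. Once seedlings have one to two leaves, the compound's emulsion, thinned with water to the intended dose, is poured on the water; grading follows after three weeks on the earlier criteria.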

[3] = tested on: lambsquarters; assay: Test Example 5: herbicidal effect by foliage application, plastic box (Table 20, symbol O); format: in vivo, lambsquarters (Chenopodium album); details: foliage application, 320 g/ha, three weeks after application
Summary of the method: (§1)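 Plants sown in sterilized diluvial soil and grown 14 days in a greenhouse at 25° C to 30° C, then sprayed on the foliage with the compound's emulsion diluted in water to a predetermined herbicide amount. Injury to weeds and crops scored three weeks after application on a visual rating scale.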

[4] = tested on: redroot pigweed; assay: Test Example 4: herbicidal effect by soil treatment (Table 19, symbol N); format: in vivo, redroot pigweed (Amaranthus retroflexus); details: amount of applied herbicide 320 g/ha
Summary of the method: (§2)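 Three weeks of greenhouse growth at 25° C. to 30° C. followed a uniform surface spray of water-diluted emulsion at a predetermined herbicide amount. Seeds had been sown beforehand under about 1.5 cm of sterilized diluvial soil. Grading followed criteria set out in an earlier test.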

[5] = tested on: Italian ryegrass; assay: Test Example 5: herbicidal effect by foliage application, plastic box (Table 20, symbol K); format: in vivo, Italian ryegrass (Lolium multiflorum); details: foliage application, 320 g/ha, three weeks after application
Summary of the method: as §1

[6] = tested on: blackgrass; assay: Test Example 5: herbicidal effect by foliage application, plastic box (Table 20, symbol J); format: in vivo, blackgrass (Alopecurus myosuroides); details: foliage application, 320 g/ha, three weeks after application
Summary of the method: as §1

[7] = tested on: green foxtail; assay: Test Example 4: herbicidal effect by soil treatment (Table 19, symbol G); format: in vivo, green foxtail (Setaria viridis); details: amount of applied herbicide 320 g/ha
Summary of the method: as §2

[8] = tested on: wild oat; assay: Test Example 5: herbicidal effect by foliage application, plastic box (Table 20, symbol I); format: in vivo, wild oat (Avena fatua); details: foliage application, 320 g/ha, three weeks after application
Summary of the method: as §1

[9] = tested on: Chinese sprangletop; assay: Test Example 3: herbicidal effect by foliage application, Wagner pot (Table 18, symbol D); format: in vivo, chinese sprangletop (Leptochloa chinensis); details: for herbicidal effect on D: Chinese sprangletop / Herbicidal effect on D (Chinese sprangletop), foliage application: amount of applied herbicide 320 g/ha
Summary of the method: (§3)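 Plants were sown in alluvial soil held under 0.1–0.5 cm standing water and grown 14 days in a greenhouse at 25–30 °C. An emulsifiable formulation, water-diluted to the set dose, was then sprayed onto the foliage, and effects were scored three weeks later using previously defined criteria.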

[10] = tested on: barnyard grass; assay: Test Example 5: herbicidal effect by foliage application, plastic box (Table 20, symbol H); format: in vivo, barnyard grass (Echinochloa crus-galli); details: foliage application, 320 g/ha, three weeks after application
Summary of the method: as §1

[11] = tested on: blackgrass; assay: Test Example 4: herbicidal effect by soil treatment (Table 19, symbol J); format: in vivo, blackgrass (Alopecurus myosuroides); details: amount of applied herbicide 320 g/ha
Summary of the method: as §2

[12] = tested on: southern crabgrass; assay: Test Example 5: herbicidal effect by foliage application, plastic box (Table 20, symbol F); format: in vivo, southern crabgrass (Digitaria ciliaris); details: foliage application, 320 g/ha, three weeks after application
Summary of the method: as §1

[13] = tested on: velvetleaf; assay: Test Example 5: herbicidal effect by foliage application, plastic box (Table 20, symbol M); format: in vivo, velvetleaf (Abutilon theophrasti); details: foliage application, 320 g/ha, three weeks after application
Summary of the method: as §1

[14] = tested on: wild oat; assay: Test Example 4: herbicidal effect by soil treatment (Table 19, symbol I); format: in vivo, wild oat (Avena fatua); details: amount of applied herbicide 320 g/ha
Summary of the method: as §2

[15] = tested on: false cleavers; assay: Test Example 5: herbicidal effect by foliage application, plastic box (Table 20, symbol Q); format: in vivo, false cleavers (Galium spurium); details: foliage application, 320 g/ha, three weeks after application
Summary of the method: as §1

[16] = tested on: southern crabgrass; assay: Test Example 4: herbicidal effect by soil treatment (Table 19, symbol F); format: in vivo, southern crabgrass (Digitaria ciliaris); details: amount of applied herbicide 320 g/ha
Summary of the method: as §2

[17] = tested on: rice flat sedge; assay: Test Example 3: herbicidal effect by foliage application, Wagner pot (Table 18, symbol E); format: in vivo, rice flat sedge (Cyperus iria); details: for herbicidal effect on E: rice flat sedge / Herbicidal effect on E (rice flat sedge), foliage application: amount of applied herbicide 320 g/ha
Summary of the method: as §3

| SMILES | Herbicidal effect, C: oval-leafed pondweed [1] | herbicidal effect rating, B: Japanese bulrush [2] | O: lambsquarters, herbicidal effect grade [3] | herbicidal effect, N: redroot pigweed [4] | K: Italian ryegrass, herbicidal effect grade [5] | J: blackgrass, herbicidal effect grade [6] | herbicidal effect, G: green foxtail [7] | I: wild oat, herbicidal effect grade [8] | herbicidal effect on D: Chinese sprangletop [9] | H: barnyard grass, herbicidal effect grade [10] | herbicidal effect, J: blackgrass [11] | F: southern crabgrass, herbicidal effect grade [12] | M: velvetleaf, herbicidal effect grade [13] | herbicidal effect, I: wild oat [14] | Q: false cleavers, herbicidal effect grade [15] | N: redroot pigweed, herbicidal effect grade [4] | G: green foxtail, herbicidal effect grade [7] | J: blackgrass, herbicidal effect grade [11] | I: wild oat, herbicidal effect grade [14] | F: southern crabgrass, herbicidal effect grade [16] | also measured |
| --- | --- | --- | --- | --- | --- | --- | --- | --- | --- | --- | --- | --- | --- | --- | --- | --- | --- | --- | --- | --- | --- |
| CCOc1ccccc1-c1sc2cc(F)ccc2c1-c1c(O)c(C)nn(C)c1=O [3-006] | 4 (Herbicidal rate of 70% or more and less than 90%) | 4 (Herbicidal rate of 70% or more and less than 90%) | 4 (Herbicidal rate of 70% or more and less than 90%) | 5 (Herbicidal rate of 90% or more (almost completely withered)) | 5 (Herbicidal rate of 90% or more (almost completely withered)) | 5 (Herbicidal rate of 90% or more (almost completely withered)) | 5 (Herbicidal rate of 90% or more (almost completely withered)) | 5 (Herbicidal rate of 90% or more (almost completely withered)) | 4 (Herbicidal rate of 70% or more and less than 90%) | 5 (Herbicidal rate of 90% or more (almost completely withered)) | 5 (Herbicidal rate of 90% or more (almost completely withered)) | 5 (Herbicidal rate of 90% or more (almost completely withered)) | 5 (Herbicidal rate of 90% or more (almost completely withered)) | 4 (Herbicidal rate of 70% or more and less than 90%) | 5 (Herbicidal rate of 90% or more (almost completely withered)) | – | – | – | – | – | herbicidal effect, F: southern crabgrass [16]: 5 (Herbicidal rate of 90% or more (almost completely withered)); herbicidal effect on E: rice flat sedge [17]: 5 (Herbicidal rate of 90% or more (almost completely withered)) |
| Cc1nn(C)c(=O)c(-c2c(-c3ccc4c(c3)OCCO4)oc3ccccc23)c1O [8-002] | 4 (Herbicidal rate of 70% or more and less than 90%) | 4 (Herbicidal rate of 70% or more and less than 90%) | – | – | – | – | – | – | – | – | – | – | – | – | – | 2 (Herbicidal rate of 20% or more and less than 40%) | 3 (Herbicidal rate of 40% or more and less than 70%) | 0 (Herbicidal rate of 5% or less (almost no effect)) | 0 (Herbicidal rate of 5% or less (almost no effect)) | 3 (Herbicidal rate of 40% or more and less than 70%) | herbicidal effect on lambsquarters (O) [3]: 0 (Herbicidal rate of 5% or less (almost no effect)); herbicidal effect on Italian ryegrass (K) [5]: 4 (Herbicidal rate of 70% or more and less than 90%); herbicidal effect on blackgrass (J) [6]: 0 (Herbicidal rate of 5% or less (almost no effect)); herbicidal effect on wild oat (I) [8]: 2 (Herbicidal rate of 20% or more and less than 40%); Herbicidal effect on D (Chinese sprangletop), foliage application [9]: 3 (Herbicidal rate of 40% or more and less than 70%); herbicidal effect on barnyard grass (H) [10]: 4 (Herbicidal rate of 70% or more and less than 90%); herbicidal effect on southern crabgrass (F) [12]: 1 (Herbicidal rate of 5% or more and less than 20%); herbicidal effect on velvetleaf (M) [13]: 5 (Herbicidal rate of 90% or more (almost completely withered)); herbicidal effect on false cleavers (Q) [15]: 0 (Herbicidal rate of 5% or less (almost no effect)); Herbicidal effect on E (rice flat sedge), foliage application [17]: 4 (Herbicidal rate of 70% or more and less than 90%) |
| COc1ccccc1-c1sc2cc(OC3CCCC3)ccc2c1-c1c(O)c(C)nn(C)c1=O [3-109] | 5 (Herbicidal rate of 90% or more (almost completely withered)) | 3 (Herbicidal rate of 40% or more and less than 70%) | 3 (Herbicidal rate of 40% or more and less than 70%) | – | 4 (Herbicidal rate of 70% or more and less than 90%) | 2 (Herbicidal rate of 20% or more and less than 40%) | – | 0 (Herbicidal rate of 5% or less (almost no effect)) | – | 4 (Herbicidal rate of 70% or more and less than 90%) | – | 3 (Herbicidal rate of 40% or more and less than 70%) | 4 (Herbicidal rate of 70% or more and less than 90%) | – | 1 (Herbicidal rate of 5% or more and less than 20%) | 5 (Herbicidal rate of 90% or more (almost completely withered)) | 4 (Herbicidal rate of 70% or more and less than 90%) | 0 (Herbicidal rate of 5% or less (almost no effect)) | 5 (Herbicidal rate of 90% or more (almost completely withered)) | 2 (Herbicidal rate of 20% or more and less than 40%) | herbicidal effect on Chinese sprangletop (D) ([9]; 320 g/ha): 4 (Herbicidal rate of 70% or more and less than 90%); herbicidal effect on rice flat sedge (E) ([17]; 320 g/ha): 4 (Herbicidal rate of 70% or more and less than 90%) |
| CCCC(=O)Oc1c(C)nn(C)c(=O)c1-c1c(-c2ccc3c(c2)OCCO3)oc2ccc(C)cc12 [9-013] | 4 (Herbicidal rate of 70% or more and less than 90%) | 0 (Herbicidal rate of 5% or less (almost no effect)) | – | – | – | – | – | – | – | – | – | – | – | – | – | 3 (Herbicidal rate of 40% or more and less than 70%) | 3 (Herbicidal rate of 40% or more and less than 70%) | 0 (Herbicidal rate of 5% or less (almost no effect)) | 0 (Herbicidal rate of 5% or less (almost no effect)) | 4 (Herbicidal rate of 70% or more and less than 90%) | herbicidal effect on lambsquarters (O) [3]: 3 (Herbicidal rate of 40% or more and less than 70%); herbicidal effect on Italian ryegrass (K) [5]: 2 (Herbicidal rate of 20% or more and less than 40%); herbicidal effect on blackgrass (J) [6]: 0 (Herbicidal rate of 5% or less (almost no effect)); herbicidal effect on wild oat (I) [8]: 0 (Herbicidal rate of 5% or less (almost no effect)); Herbicidal effect on D (Chinese sprangletop), foliage application [9]: 0 (Herbicidal rate of 5% or less (almost no effect)); herbicidal effect on barnyard grass (H) [10]: 0 (Herbicidal rate of 5% or less (almost no effect)); herbicidal effect on southern crabgrass (F) [12]: 0 (Herbicidal rate of 5% or less (almost no effect)); herbicidal effect on velvetleaf (M) [13]: 5 (Herbicidal rate of 90% or more (almost completely withered)); herbicidal effect on false cleavers (Q) [15]: 0 (Herbicidal rate of 5% or less (almost no effect)); Herbicidal effect on E (rice flat sedge), foliage application [17]: 3 (Herbicidal rate of 40% or more and less than 70%) |
| CCCC(=O)Oc1c(C)nn(C)c(=O)c1-c1c(-c2ccc(OC)cc2)sc2cc(F)ccc12 [3-008] | 5 (Herbicidal rate of 90% or more (almost completely withered)) | 2 (Herbicidal rate of 20% or more and less than 40%) | 5 (Herbicidal rate of 90% or more (almost completely withered)) | 5 (Herbicidal rate of 90% or more (almost completely withered)) | 3 (Herbicidal rate of 40% or more and less than 70%) | 1 (Herbicidal rate of 5% or more and less than 20%) | 0 (Herbicidal rate of 5% or less (almost no effect)) | 0 (Herbicidal rate of 5% or less (almost no effect)) | 4 (Herbicidal rate of 70% or more and less than 90%) | 4 (Herbicidal rate of 70% or more and less than 90%) | 0 (Herbicidal rate of 5% or less (almost no effect)) | 4 (Herbicidal rate of 70% or more and less than 90%) | 5 (Herbicidal rate of 90% or more (almost completely withered)) | 0 (Herbicidal rate of 5% or less (almost no effect)) | 4 (Herbicidal rate of 70% or more and less than 90%) | – | – | – | – | – | herbicidal effect, F: southern crabgrass [16]: 0 (Herbicidal rate of 5% or less (almost no effect)); herbicidal effect on E: rice flat sedge [17]: 5 (Herbicidal rate of 90% or more (almost completely withered)) |
